US20060148732A1, “Inhibition of NF-kappaB by triterpene compositions” (priority 2000, published 2006)

Columns and labels:
[1] = tested on: Jurkat (T-cell leukemia) cells; assay: Cytotoxicity screen (MTT/crystal violet, 72 h); format: cell-based, human; details: for inhibitory concentration 50 (IC50), growth inhibition: MTT, 72 hours
Method: (§1) Each of the extracts was then screened against a panel of human tumor and non-tumor cells including human ovarian cancer cell lines, T-leukemic cells, human epidermoid cells, human breast cancer cells, human prostate cancer cells, human foreskin fibroblast cells, human endothelial cells, and human renal cancer cells. The cells were first plated in 96-well plates for 18-24 hours at 37° C. The cells were then exposed to varying concentrations of the plant extracts, and incubated for 72 hours at 37° C., and stained with either MTT (3-(4,5-dimethylethiazol-2-yl)-2,5-diphenyl tetrazolium bromide; Sigma Chemical Co.) for 4 hours or crystal violet (Sigma Chemical Co.) for 20 minutes at room temperature. The MTT plates received lysis buffer (20% sodium dodecyl sulfate in 50% DMF) and were incubated for an additional 6 hours before taking an OD reading at 570 nm. The crystal violet plates were washed, dye was extracted for 3-4 hours with Sorenson's buffer (0.1 M sodium citrate (pH 4.2), 50% v/v ethanol), and the plates were read at 570-600 nm (Mujoo et al., 1996). Cytotoxicity of the screened extracts was indicated by comparing the OD readings between the treated media alone and the cells treated with the plant extract. Percent cytotoxicity was calculated by 100-% of control, where % of control =[((OD of cells treated with plant extract (treated sample))/(OD of cells exposed to media alone (untreated sample)))×100].
Assay for Growth Inhibition. The growth inhibitory activity of F094 and avicins was measured by the MTT [3-(4, 5-Dimethylthiazol-2-yl)-2, 5-diphenyl tetrazolium bromide)] reduction assay (Deng et al., 1999). Cells (1×10^4/well) were cultured with varying concentrations of F094, avicin D, or avicin G in 96 well plates for 72 hours at 37° C. The cells were stained with MTT for 2 hours and then incubated with lysis buffer (20% sodium dodecyl sulfate in 50% N,N-dimethylformamide) for another 6 hours. Optical density at 570 nm was used as a measure of cell viability.

human tumor cell lines = assay: Cytotoxicity / anti-tumor activity on panel of tumor cell lines; format: cell-based
Method: as §1
The following human cancer cell lines were obtained from American Type Tissue Culture Collection (ATCC, Rockville, Md.). SK-OV-3 and OVCAR-3 (ovarian), Jurkat (T-cell leukemia), U-937 (histiocytic lymphoma), MDA-MB-468, MDA-MB-453, MDA-MB-435, SK-BP-3, MCF-7, MDA-MB-231, BT-20 (breast), LNCaP, PC-3, DU145 (prostate), 769-P, 786-O A498 (renal) and PANC-1 (pancreatic). HEY and Dov-13 (ovarian), cell lines were obtained from M. D. Anderson Cancer Center. The following non-transformed human cell lines MCF-10A and 10F (breast epithelium) were obtained from M. D. Anderson Cancer Center. Hs 27 (human foreskin fibroblasts) and L929 (mouse fibroblasts) were obtained from ATCC. […]

[2] = Stability in solution during purification; format: physicochemical; details: dilute acid solutions vs water at 40° C.
Description: The fraction D (45% D1) from the PFP Prep column was first fractionated on a Waters C-18 column (25×100 mm). The mobile phase was 61% methanol in water with 0.1% TFA. […] A sample of D1 with 100% chromatographic purity (FIG. 35) was produced by further fractionation of the impure D1 on YMC C18-Aq column with 33% acetonitrile/water with 0.1% TFA as the mobile phase. […] Therefore, 0.1% TFA was included in solvents during the purification of D1.

IκBα in Jurkat cells = assay: Western blot of IκBα degradation; format: cell-based, human; details: 2 μg/ml 16 hours, TNF 1 nM
Method: Western Blot Analysis. Cytoplasmic and nuclear extracts of Jurkat cells treated with monoterpene/triterpene glycoside G1 were used to study the degradation of IκB and nuclear translocation of the p65 subunit of NF-κB respectively. Then, 50 μg of the cytoplasmic or nuclear protein were resolved on a 9% SDS-polyacrylamide gel and electrotransferred onto a nitrocellulose membrane. The membranes were probed with rabbit anti-IκBα or rabbit anti-p65 antibody (Santa Cruz, Calif.) followed with anti-rabbit antibody conjugated to horseradish peroxidase (HRPO). Protein bands were detected by chemiluminescence (ECL, Amersham).

[3] = tested on: pGL3-NF-κB in Jurkat cells; assay: NF-κB dependent luciferase gene expression; format: cell-based, human; details: transfected Jurkat; pretreatment
Method: Transfection and Assay of Luciferase Activity. Jurkat cells were transfected with pGL3-NF-κB by electroporation. The cells were then treated with monoterpene/triterpene glycoside G1 (1 μg/ml) for 16 h. NF-κB was activated using LPS (100 ng/ml), PMA (5 ng/ml), or TNF (1 nM). Luciferase activity was measured using the luciferase assay kit (Promega, Madison, Wis.) as per the manufacturer's instructions.

COX-2 in RAW 264.7 cells = assay: LPS-induced COX-2 expression (western blot); format: cell-based; details: RAW264.7; 2 μg/ml 16 h; LPS 100 ng/ml
Method: Induction and Measurement of iNOS and COX-2. RAW 264.7 cells (0.5×10^6/ml) were plated in 100 mm dishes and treated with F094 or monoterpene/triterpene glycosides (2 μg/ml) for 16 h. Next, the cells were exposed to 100 ng/ml of LPS for 24 h. Cells were lysed in a buffer containing 50 mM Tris, pH 7.4, 100 mM NaCl, 0.5% NP-40, 10 μg/ml leupeptin, 5 μg/ml aprotinin, and 100 μM PMSF. 70 μg of cellular protein were then loaded on a 7.5% SDS-polyacrylamide gel and electrotransferred onto a nitrocellulose membrane. Levels of iNOS and COX-2 were analyzed by Western blot analysis using rabbit anti-iNOS (Santa Cruz) and goat anti-COX-2 antibodies respectively.

Q: What does the source list for `C=C[C@](C)(O)CC/C=C(\CO)C(=O)O[C@H]1[C@H](O)[C@@H](O)[C@H](O[C@@](C)(C=C)CC/C=C(\CO)C(=O)O[C@H]2C[C@]3(C(=O)O[C@@H]4O[C@H](CO)[C@@H](O)[C@H](O)[C@H]4O[C@@H]4O[C@@H](C)[C@H](O[C@@H]5O[C@@H](CO)[C@H](O)[C@H]5O)[C@@H](O[C@@H]5O[C@H](CO)[C@@H](O)[C@H](O)[C@H]5O)[C@H]4O)[C@H](O)C[C@]4(C)C(=CC[C@@H]5[C@@]6(C)CC[C@H](O[C@@H]7O[C@H](CO[C@@H]8O[C@H](C)[C@H](O)[C@H](O)[C@H]8O[C@@H]8OC[C@@H](O)[C@H](O)[C@H]8O)[C@@H](O)[C@H](O)[C@H]7NC(C)=O)C(C)(C)[C@@H]6CC[C@]54C)[C@@H]3CC2(C)C)O[C@@H]1C` [Fraction D1]?
A: inhibitory concentration 50 (IC50), growth inhibition [1]: 0.320 to 0.326 µg/mL; Cytotoxicity IC50 ([1]; pH 6.5): 1.01 µg/mL; Cytotoxicity IC50 ([1]; pH 7.5): 0.98 µg/mL; IC50 compared with F035 (human tumor cell lines; 769-P, MDA-MB-453, MDA-MB-231): comparable to F035; potency compared with F035 (human tumor cell lines; C-2 (HEY Variant) and Jurkat cells): twice as potent as F035; stability in solution [2]: more stable in dilute acid solutions than in water

Q: For `C=C[C@](C)(O)CC/C=C(\C)C(=O)O[C@H]1[C@H](O)[C@@H](O)[C@H](O[C@@](C)(C=C)CC/C=C(\CO)C(=O)O[C@H]2C[C@]3(C(=O)O[C@@H]4O[C@H](CO)[C@@H](O)[C@H](O)[C@H]4O[C@@H]4O[C@@H](C)[C@H](O[C@@H]5O[C@@H](CO)[C@H](O)[C@H]5O)[C@@H](O[C@@H]5O[C@H](CO)[C@@H](O)[C@H](O)[C@H]5O)[C@H]4O)[C@H](O)C[C@]4(C)C(=CC[C@@H]5[C@@]6(C)CC[C@H](O[C@@H]7O[C@H](CO[C@@H]8O[C@H](C)[C@H](O)[C@H](O)[C@H]8O[C@@H]8OC[C@@H](O)[C@H](O)[C@H]8O)[C@@H](O)[C@H](O)[C@H]7NC(C)=O)C(C)(C)[C@@H]6CC[C@]54C)[C@@H]3CC2(C)C)O[C@@H]1C` [Fraction G1], which “inhibitory concentration 50 (IC50), growth inhibition” value [1] is on record?
A: 0.160 to 0.181 µg/mL

Q: What about the “Cytotoxicity IC50” value ([1]; pH 6.5) of the same molecule?
A: 0.3 µg/mL

Q: And the “Cytotoxicity IC50” value ([1]; pH 7.5)?
A: 0.49 µg/mL

Q: What about the “cytotoxicity compared with F035 and D1” value (human tumor cell lines; most of the cells tested (Jurkat, C-2, 769-P, MDA-MB-231, MDA-MB-453)) of the same molecule?
A: significantly more cytotoxic than F035 and D1

Q: And the “pattern of IκB degradation” value (IκBα in Jurkat cells)?
A: no difference

Q: What about the “luciferase activity induced by LPS, PMA or TNF” value [3] of the same molecule?
A: significantly inhibited

Q: And the “levels of LPS-induced COX-2” value (COX-2 in RAW 264.7 cells)?
A: decreases the levels of LPS-induced iNOS and COX-2 sharply
